Measurements: the NIST ThermoML archive (doi:10.1016/j.tca.2014.07.022)

Assay: xn = mol fraction of the nth substance listed
Conditions: 100 kPa, Liquid; for viscosity: Concentric cylinders viscometry; for mass density: Vibrating tube method

CC(=O)CC(C)C [4-methylpentan-2-one] + CCC(C)O
Conditions | mass density [kg/m3] | viscosity [mPa·s]
293.15 K, x1 = 0.1002 | 805.1 | 2.361
293.15 K, x1 = 0.1905 | 803.8 | 1.802
293.15 K, x1 = 0.2801 | 802.8 | 1.468
293.15 K, x1 = 0.4054 | 801.7 | 1.162
293.15 K, x1 = 0.4891 | 801.2 | 1.001
293.15 K, x1 = 0.6123 | 800.7 | 0.84
293.15 K, x1 = 0.6942 | 800.5 | 0.771
293.15 K, x1 = 0.779 | 800.5 | 0.713
293.15 K, x1 = 0.8747 | 800.5 | 0.646
293.15 K, x1 = 0.9522 | 800.7 | 0.614
293.15 K, x1 = 1 | 800.8 | 0.588
298.15 K, x1 = 0.1002 | 800.9 | 2.041
298.15 K, x1 = 0.1905 | 799.5 | 1.598
298.15 K, x1 = 0.2801 | 798.4 | 1.311
298.15 K, x1 = 0.4054 | 797.2 | 1.053
298.15 K, x1 = 0.4891 | 796.6 | 0.916
298.15 K, x1 = 0.6123 | 796 | 0.776
298.15 K, x1 = 0.6942 | 795.9 | 0.717
298.15 K, x1 = 0.779 | 795.8 | 0.666
298.15 K, x1 = 0.8747 | 795.8 | 0.607
298.15 K, x1 = 0.9522 | 796 | 0.582
298.15 K, x1 = 1 | 796.1 | 0.554
303.15 K, x1 = 0.1002 | 796.4 | 1.762
303.15 K, x1 = 0.1905 | 795 | 1.403
303.15 K, x1 = 0.2801 | 793.9 | 1.173
303.15 K, x1 = 0.4054 | 792.6 | 0.955
303.15 K, x1 = 0.4891 | 792.1 | 0.84
303.15 K, x1 = 0.6123 | 791.5 | 0.716
303.15 K, x1 = 0.6942 | 791.3 | 0.668
303.15 K, x1 = 0.779 | 791.2 | 0.621
303.15 K, x1 = 0.8747 | 791.3 | 0.569
303.15 K, x1 = 0.9522 | 791.4 | 0.545
303.15 K, x1 = 1 | 791.6 | 0.523
308.15 K, x1 = 0.1002 | 792 | 1.531
308.15 K, x1 = 0.1905 | 790.5 | 1.247
308.15 K, x1 = 0.2801 | 789.3 | 1.055
308.15 K, x1 = 0.4054 | 788 | 0.87
308.15 K, x1 = 0.4891 | 787.4 | 0.775
308.15 K, x1 = 0.6123 | 786.7 | 0.664
308.15 K, x1 = 0.6942 | 786.5 | 0.623
308.15 K, x1 = 0.779 | 786.5 | 0.582
308.15 K, x1 = 0.8747 | 786.5 | 0.536
308.15 K, x1 = 0.9522 | 786.7 | 0.513
308.15 K, x1 = 1 | 786.9 | 0.493
313.15 K, x1 = 0.1002 | 787.6 | 1.341
313.15 K, x1 = 0.1905 | 786 | 1.1
313.15 K, x1 = 0.2801 | 784.7 | 0.94
313.15 K, x1 = 0.4054 | 783.4 | 0.787
313.15 K, x1 = 0.4891 | 782.7 | 0.708
313.15 K, x1 = 0.6123 | 782.1 | 0.621
313.15 K, x1 = 0.6942 | 781.9 | 0.58
313.15 K, x1 = 0.779 | 781.8 | 0.544
313.15 K, x1 = 0.8747 | 781.9 | 0.505
313.15 K, x1 = 0.9522 | 782.1 | 0.485
313.15 K, x1 = 1 | 782.3 | 0.463
318.15 K, x1 = 0.1002 | 783 | 1.181
318.15 K, x1 = 0.1905 | 781.3 | 0.984
318.15 K, x1 = 0.2801 | 780 | 0.847
318.15 K, x1 = 0.4054 | 778.6 | 0.715
318.15 K, x1 = 0.4891 | 777.9 | 0.649
318.15 K, x1 = 0.6123 | 777.3 | 0.575
318.15 K, x1 = 0.6942 | 777.1 | 0.535
318.15 K, x1 = 0.779 | 777 | 0.505
318.15 K, x1 = 0.8747 | 777.1 | 0.477
318.15 K, x1 = 0.9522 | 777.4 | 0.458
318.15 K, x1 = 1 | 777.6 | 0.437
323.15 K, x1 = 0.1002 | 778.3 | 1.035
323.15 K, x1 = 0.1905 | 776.6 | 0.88
323.15 K, x1 = 0.2801 | 775.3 | 0.772
323.15 K, x1 = 0.4054 | 773.8 | 0.662
323.15 K, x1 = 0.4891 | 773.2 | 0.603
323.15 K, x1 = 0.6123 | 772.6 | 0.535
323.15 K, x1 = 0.6942 | 772.4 | 0.501
323.15 K, x1 = 0.779 | 772.3 | 0.471
323.15 K, x1 = 0.8747 | 772.5 | 0.449
323.15 K, x1 = 0.9522 | 772.7 | 0.434
323.15 K, x1 = 1 | 773 | 0.41

CCCC(C)O (stereo not drawn) [pentan-2-ol] + CC(=O)CC(C)C
Conditions | mass density [kg/m3] | viscosity [mPa·s]
293.15 K, x2 = 0 | 809.3 | 3.974
293.15 K, x2 = 0.0812 | 807.6 | 2.699
293.15 K, x2 = 0.1588 | 806.2 | 2.09
293.15 K, x2 = 0.2391 | 804.9 | 1.709
293.15 K, x2 = 0.3508 | 803.3 | 1.366
293.15 K, x2 = 0.4441 | 802.4 | 1.14
293.15 K, x2 = 0.561 | 801.4 | 0.924
293.15 K, x2 = 0.6484 | 800.9 | 0.818
293.15 K, x2 = 0.741 | 800.7 | 0.74
293.15 K, x2 = 0.8528 | 800.5 | 0.671
293.15 K, x2 = 0.9406 | 800.7 | 0.63
298.15 K, x2 = 0 | 805.3 | 3.277
298.15 K, x2 = 0.0812 | 803.5 | 2.326
298.15 K, x2 = 0.1588 | 801.9 | 1.83
298.15 K, x2 = 0.2391 | 800.6 | 1.496
298.15 K, x2 = 0.3508 | 799 | 1.202
298.15 K, x2 = 0.4441 | 797.9 | 1.018
298.15 K, x2 = 0.561 | 796.9 | 0.85
298.15 K, x2 = 0.6484 | 796.4 | 0.767
298.15 K, x2 = 0.741 | 796 | 0.69
298.15 K, x2 = 0.8528 | 795.9 | 0.63
298.15 K, x2 = 0.9406 | 795.9 | 0.59
303.15 K, x2 = 0 | 801.2 | 2.717
303.15 K, x2 = 0.0812 | 799.3 | 2.029
303.15 K, x2 = 0.1588 | 797.7 | 1.619
303.15 K, x2 = 0.2391 | 796.3 | 1.333
303.15 K, x2 = 0.3508 | 794.6 | 1.078
303.15 K, x2 = 0.4441 | 793.5 | 0.928
303.15 K, x2 = 0.561 | 792.4 | 0.787
303.15 K, x2 = 0.6484 | 791.9 | 0.711
303.15 K, x2 = 0.741 | 791.5 | 0.641
303.15 K, x2 = 0.8528 | 791.3 | 0.589
303.15 K, x2 = 0.9406 | 791.4 | 0.553
308.15 K, x2 = 0 | 797 | 2.282
308.15 K, x2 = 0.0812 | 795 | 1.757
308.15 K, x2 = 0.1588 | 793.4 | 1.429
308.15 K, x2 = 0.2391 | 791.9 | 1.185
308.15 K, x2 = 0.3508 | 790.1 | 0.966
308.15 K, x2 = 0.4441 | 788.9 | 0.842
308.15 K, x2 = 0.561 | 787.8 | 0.728
308.15 K, x2 = 0.6484 | 787.2 | 0.663
308.15 K, x2 = 0.741 | 786.8 | 0.6
308.15 K, x2 = 0.8528 | 786.6 | 0.554
308.15 K, x2 = 0.9406 | 786.7 | 0.526
313.15 K, x2 = 0 | 792.7 | 1.931
313.15 K, x2 = 0.0812 | 790.6 | 1.52
313.15 K, x2 = 0.1588 | 788.9 | 1.249
313.15 K, x2 = 0.2391 | 787.4 | 1.051
313.15 K, x2 = 0.3508 | 785.6 | 0.876
313.15 K, x2 = 0.4441 | 784.3 | 0.773
313.15 K, x2 = 0.561 | 783.2 | 0.675
313.15 K, x2 = 0.6484 | 782.6 | 0.617
313.15 K, x2 = 0.741 | 782.2 | 0.561
313.15 K, x2 = 0.8528 | 782 | 0.522
313.15 K, x2 = 0.9406 | 782.1 | 0.497
318.15 K, x2 = 0 | 788.4 | 1.647
318.15 K, x2 = 0.0812 | 786.3 | 1.329
318.15 K, x2 = 0.1588 | 784.5 | 1.116
318.15 K, x2 = 0.2391 | 782.9 | 0.949
318.15 K, x2 = 0.3508 | 781 | 0.8
318.15 K, x2 = 0.4441 | 779.8 | 0.712
318.15 K, x2 = 0.561 | 778.6 | 0.627
318.15 K, x2 = 0.6484 | 778 | 0.577
318.15 K, x2 = 0.741 | 777.6 | 0.53
318.15 K, x2 = 0.8528 | 777.3 | 0.492
318.15 K, x2 = 0.9406 | 777.4 | 0.465
323.15 K, x2 = 0 | 784 | 1.419
323.15 K, x2 = 0.0812 | 781.9 | 1.168
323.15 K, x2 = 0.1588 | 780 | 0.995
323.15 K, x2 = 0.2391 | 778.4 | 0.855
323.15 K, x2 = 0.3508 | 776.5 | 0.729
323.15 K, x2 = 0.4441 | 775.2 | 0.654
323.15 K, x2 = 0.561 | 774 | 0.583
323.15 K, x2 = 0.6484 | 773.4 | 0.543
323.15 K, x2 = 0.741 | 772.9 | 0.505
323.15 K, x2 = 0.8528 | 772.7 | 0.468
323.15 K, x2 = 0.9406 | 772.8 | 0.445
